The assay concerns the target human TRPM8 (Homo sapiens (Human), UniProt Q7Z2W7). In words: TRPM8 inhibition assay (menthol-induced calcium influx, FDSS). Conditions: HEK293 cells stably expressing human TRPM8; 100 μmol/L menthol; Fura-2AM calcium signal; read-out: TRPM8 Blocking Test (IC50/nmol/L). In kind it is cell-based. The protocol: The functional activity of a test compound was determined by measuring change in intracellular calcium concentration using a calcium sensitive fluorescent dye. The change in fluorescent signal was measured by the cell imaging technology by Hamamatsu Photonics's Functional Drug Screening System (FDSS).
HEK293 cells stably expressing human TRPM8 were grown in a flask. On assay day, the culture medium was removed from the flask, and cells were washed with phosphate-buffered saline (PBS) and harvested with PBS containing 2 mmol/L of ethylenediaminetetraacetic acid disodium salt (EDTA-2Na). […] Subsequently, suspended 20,000 to 50,000 cells per well were incubated with a test compound (at varying concentrations) in each well at 37° C. for 20 minutes. Change in intracellular calcium concentration evoked by 100 μmol/L of menthol was measured for 2 minutes using FDSS. […] The concentration-response curve was generated using the average of quadruplicate wells for each data point.
Chain of human TRPM8 (Q7Z2W7 whole entry): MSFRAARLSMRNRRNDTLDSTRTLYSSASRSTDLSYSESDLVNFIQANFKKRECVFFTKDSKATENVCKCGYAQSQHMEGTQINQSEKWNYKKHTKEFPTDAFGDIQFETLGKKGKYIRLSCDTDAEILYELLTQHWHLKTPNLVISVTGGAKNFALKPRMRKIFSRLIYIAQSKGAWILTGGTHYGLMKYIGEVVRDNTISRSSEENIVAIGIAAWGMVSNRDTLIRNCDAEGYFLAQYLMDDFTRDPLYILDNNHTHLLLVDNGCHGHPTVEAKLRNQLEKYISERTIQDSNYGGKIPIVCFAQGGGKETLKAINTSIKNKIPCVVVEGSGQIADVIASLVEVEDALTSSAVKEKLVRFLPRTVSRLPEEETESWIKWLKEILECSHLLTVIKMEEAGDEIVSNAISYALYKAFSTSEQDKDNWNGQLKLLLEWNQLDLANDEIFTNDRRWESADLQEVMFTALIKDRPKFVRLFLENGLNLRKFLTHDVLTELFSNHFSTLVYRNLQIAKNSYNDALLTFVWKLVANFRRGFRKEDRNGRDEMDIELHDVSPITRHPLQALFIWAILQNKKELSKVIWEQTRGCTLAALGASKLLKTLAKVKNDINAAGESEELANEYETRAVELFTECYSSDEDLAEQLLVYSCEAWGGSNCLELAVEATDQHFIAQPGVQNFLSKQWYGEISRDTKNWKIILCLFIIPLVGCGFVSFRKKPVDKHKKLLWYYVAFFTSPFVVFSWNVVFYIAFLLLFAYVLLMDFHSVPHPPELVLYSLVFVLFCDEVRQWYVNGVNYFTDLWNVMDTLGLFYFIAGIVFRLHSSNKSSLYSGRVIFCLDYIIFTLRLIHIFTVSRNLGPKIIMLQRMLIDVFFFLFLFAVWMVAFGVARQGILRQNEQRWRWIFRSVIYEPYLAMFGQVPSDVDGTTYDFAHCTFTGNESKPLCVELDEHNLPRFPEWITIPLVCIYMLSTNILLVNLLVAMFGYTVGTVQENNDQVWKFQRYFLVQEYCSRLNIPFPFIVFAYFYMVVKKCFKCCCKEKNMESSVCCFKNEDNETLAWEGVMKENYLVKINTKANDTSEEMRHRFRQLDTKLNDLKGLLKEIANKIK
For the compound `Cc1cc(S(=O)(=O)N(Cc2ccc(OC(F)(F)F)cc2)c2nc(C3CC3)c3ccccc3c2C)ccc1C(=O)O` [Example 40, 4-({(1-cyclopropyl-4-methylisoquinolin-3-yl)[4-(trifluoromethoxy)benzyl]amino}sulfonyl)-2-methylbenzoic acid], the IC50 amounted to 6.5 nmol/L. As for `CNc1cc(S(=O)(=O)N(Cc2ccc(OC(F)(F)F)cc2)c2ncc3ccccc3c2C2CC2)ccc1C(=O)O` [Example 41, 4-({(4-cyclopropylisoquinolin-3-yl)[4-(trifluoromethoxy)benzyl]amino}sulfonyl)-2-(methylamino)benzoic acid], the figure is 1.1 nmol/L. As for `Cc1cc(S(=O)(=O)N(Cc2ccc(OC(F)(F)F)cc2)c2ncc3ccccc3c2C2CC2)cc(F)c1C(=O)O` [Example 42], the figure is 1.5 nmol/L; as for `O=C(O)c1ccc(S(=O)(=O)N(Cc2ccc(OC(F)(F)F)cc2)c2ncc3ccccc3c2C2CC2)cc1C1CC1` [Example 43], 10.1 nmol/L; as for `CC(C)c1cc(S(=O)(=O)N(Cc2ccc(OC(F)(F)F)cc2)c2ncc3ccccc3c2C2CC2)ccc1C(=O)O` [Example 44], 5.6 nmol/L.

Consider `CN(C)c1cc(S(=O)(=O)N(Cc2ccc(OC(F)(F)F)cc2)c2ncc3ccccc3c2C2CC2)ccc1C(=O)O` [Example 45], for which the IC50 was determined as 2.9 nmol/L.

On to `Cc1cc(S(=O)(=O)N(Cc2ccc(OC(F)(F)F)cc2)c2ncc3ccccc3c2C(F)(F)F)ccc1C(=O)O` [Example 46], for which the IC50 was 3.3 nmol/L. Consider `O=C(O)c1ccc(S(=O)(=O)N(Cc2ccc(OC(F)(F)F)cc2)c2ncc3ccccc3c2C2CC2)cc1Cl` [Example 47], for which the IC50 stood at 3.8 nmol/L.

For the compound `O=C(O)c1ccc(S(=O)(=O)N(Cc2ccc(OC(F)(F)F)cc2)c2ncc3ccccc3c2C2CC2)cc1Br` [Example 48], the IC50 was determined as 6.3 nmol/L. As for `O=C(O)c1ccc(S(=O)(=O)N(Cc2ccc(OC(F)(F)F)cc2)c2ncc3ccccc3c2C2CC2)cc1C(F)(F)F` [Example 49], the figure is 18.1 nmol/L; as for `COc1cc(S(=O)(=O)N(Cc2ccc(OC(F)(F)F)cc2)c2ncc3ccccc3c2C2CC2)ccc1C(=O)O` [Example 50], 11.7 nmol/L. The result for `Cc1cc(S(=O)(=O)N(Cc2ccc(OC(F)(F)F)cc2)c2ncc3ccccc3c2C2CC2)cc(C)c1C(=O)O` [Example 51] reads 10.9 nmol/L. As for `O=C(O)c1ccc(S(=O)(=O)N(Cc2ccc(OC(F)(F)F)cc2)c2ncc3ccccc3c2C2CC2)cc1F` [Example 52], the figure is 1 nmol/L. As to `CCc1cc(S(=O)(=O)N(Cc2ccc(OC(F)(F)F)cc2)c2ncc3ccccc3c2C(F)(F)F)ccc1C(=O)O` [Example 53], the IC50 amounted to 3 nmol/L.

With `CCc1cc(S(=O)(=O)N(Cc2ccc(OC(F)(F)F)cc2)c2ncc3ccccc3c2C2CC2)ccc1C(=O)O` [Example 54], the IC50 was 2.1 nmol/L. As for `O=C(O)c1ccc(S(=O)(=O)N(Cc2ccc(OC(F)(F)F)cc2)c2ncc3ccccc3c2C2CC2)cc1-c1ccccc1` [Example 55], the IC50 came to 13.6 nmol/L. As for `CC(C)c1cc(S(=O)(=O)N(Cc2ccc(OC(F)(F)F)cc2)c2ncc3ccccc3c2C(F)(F)F)ccc1C(=O)O` [Example 56], the IC50 came to 6.6 nmol/L. In the case of `CCCc1cc(S(=O)(=O)N(Cc2ccc(OC(F)(F)F)cc2)c2ncc3ccccc3c2C2CC2)ccc1C(=O)O` [Example 57], the IC50 was 2.5 nmol/L. As for `O=C(O)c1ccc(S(=O)(=O)N(Cc2ccc(OC(F)(F)F)cc2)c2ncc3ccccc3c2C2CC2)cc1N1CCCC1` [Example 58], the figure is 4.6 nmol/L. As for `O=C(O)c1ccc(S(=O)(=O)N(Cc2ccc(OC(F)(F)F)cc2)c2ncc3ccccc3c2C2CC2)cc1N1CCCCC1` [Example 59], the figure is 10.3 nmol/L; as for `O=C(O)c1ccc(S(=O)(=O)N(Cc2ccc(OC(F)(F)F)cc2)c2ncc3ccccc3c2C2CC2)cc1N1CCOCC1` [Example 60], 19.6 nmol/L.

Source of the values: US9487488B2, “Sulfonamide compound” (MITSUBISHI TANABE PHARMA CORPORATION, priority 2012, dated 2016).
